Test results reported in paper PMC12394658, “Discovery of Zharp1-163 as a dual inhibitor of ferroptosis and necroptosis for the treatment of inflammatory disorders and kidney injury” (Cell Death Discovery, 2025).

Experiments:
Experiment in all cases: biochemical
Design in all cases: Kinase selectivity panel of 81 human kinases, ADP-Glo or HTRF, per cent inhibition at 1 uM
[1] = biological target: T1, CK1γ3 (Homo sapiens, UniProt Q9Y6M4)
T1 construct: gene CSNK1G3
Method: (§1) We next sought to determine the binding affinity of Zharp1-163 for RIPK1 or RIPK3 via a binding assay (Fig. 4A). […] Further, we evaluated the selectivity of Zharp1-163 against a panel of 81 kinases (at 1000 nM). […] To elucidate the binding interactions between Zharp1-163 and RIPK1 kinase, we conducted molecular docking studies using the RIPK1 crystal structure (PDB ID: 4NEU). The predicted binding conformations and interaction patterns between Zharp1-163 and the RIPK1 kinase domain are presented in Fig. 4D, E. Like the cocrystallized ligand in the 4NEU crystal complex, Zharp1-163 was predicted to act as a typical type II kinase inhibitor, interacting with the DLG (Asp156-Leu157-Gly158)-out conformation of RIPK1 (Fig. 4D, E). The 2-aminoimidazo [1,2-a] pyridine moiety of Zharp1-163 formed hydrogen bonds with Met95 in the hinge region. Furthermore, the carboxylate group of Zharp1-163 established hydrogen bonds with Asp156 in the DLG-out region. Additionally, the saturated ring of Zharp1-163 was deeply embedded within the hydrophobic allosteric pocket formed by the residues Met66, Met67, Leu70, Val76, Leu129, and Leu159, which is created by the DLG-out conformation in RIPK1 (Fig. 4D, E).  Fig. 4 Zharp1-163 is a selective inhibitor of RIPK1 kinase activity. A Binding affinity curve of Zharp1-163 with RIPK1 and RIPK3. B In an in vitro kinase activity assay, recombinant RIPK1 was incubated with Zharp1-163, after which RIPK1 kinase activity was determined by measuring ATP levels via a luciferase reporter assay system. […] Kinases are marked with dots, where the color of each kinase indicates the level of inhibition achieved by Zharp1-163. D Predicted binding conformation of Zharp1-163. E Schematic representation of the interaction patterns between Zharp1-163 and the key residues in the binding pocket of the RIPK1 kinase. […] NIH3T3-RIPK3 cells were pretreated with the indicated concentrations of Zharp1-163 for 2 h and then treated with AP20187 (100 nM) for 24 h. Cell viability was determined by measuring ATP levels. […] HeLa-MLKL (1–190) cells were pretreated with the indicated concentrations of Zharp1-163 for 2 h and subsequently treated with AP20187 (100 nM) for 24 h. Cell viability was determined by measuring ATP levels. H Viability of IFNβ-primed MEFs at 18 h after stimulation with poly(I:C) plus z-VAD and treatment with Zharp1-163 (10 μM). I Effects of different concentrations of Zharp1-163 on WT or RIPK1 KO HT-29 cells. Cell viability was determined by measuring ATP levels. The data are presented as the mean ± SD of triplicate samples.

[2] = biological target: BMX (Homo sapiens, UniProt P51813)
Method: as §1

[3] = biological target: T2, CHK2 (Homo sapiens, UniProt O96017)
T2 construct: gene CHEK2
Method: as §1

[4] = biological target: T3, PEK (Homo sapiens, UniProt Q9NZJ5)
T3 construct: gene EIF2AK3
Method: as §1

[5] = biological target: MARK4 (Homo sapiens, UniProt Q96L34)
Method: as §1

[6] = biological target: ROCK1 (Homo sapiens, UniProt Q13464)
Method: as §1

[7] = biological target: T4, GSK3β (Homo sapiens, UniProt P49841)
T4 construct: gene GSK3B
Method: as §1

[8] = biological target: PLK1 (Homo sapiens, UniProt P53350)
Method: as §1

[9] = biological target: T5, p38α (Homo sapiens, UniProt Q16539)
T5 construct: gene MAPK14
Method: as §1

[10] = biological target: LCK (Homo sapiens, UniProt P06239)
Method: as §1

[11] = biological target: ITK (Homo sapiens, UniProt Q08881)
Method: as §1

[12] = biological target: TAOK1 (Homo sapiens, UniProt Q7L7X3)
Method: as §1

[13] = biological target: T6, HPK1 (Homo sapiens, UniProt Q92918)
T6 construct: gene MAP4K1
Method: as §1

[14] = biological target: PIM1 (Homo sapiens, UniProt P11309)
Method: as §1

T3 sequence (Q9NZJ5 whole entry): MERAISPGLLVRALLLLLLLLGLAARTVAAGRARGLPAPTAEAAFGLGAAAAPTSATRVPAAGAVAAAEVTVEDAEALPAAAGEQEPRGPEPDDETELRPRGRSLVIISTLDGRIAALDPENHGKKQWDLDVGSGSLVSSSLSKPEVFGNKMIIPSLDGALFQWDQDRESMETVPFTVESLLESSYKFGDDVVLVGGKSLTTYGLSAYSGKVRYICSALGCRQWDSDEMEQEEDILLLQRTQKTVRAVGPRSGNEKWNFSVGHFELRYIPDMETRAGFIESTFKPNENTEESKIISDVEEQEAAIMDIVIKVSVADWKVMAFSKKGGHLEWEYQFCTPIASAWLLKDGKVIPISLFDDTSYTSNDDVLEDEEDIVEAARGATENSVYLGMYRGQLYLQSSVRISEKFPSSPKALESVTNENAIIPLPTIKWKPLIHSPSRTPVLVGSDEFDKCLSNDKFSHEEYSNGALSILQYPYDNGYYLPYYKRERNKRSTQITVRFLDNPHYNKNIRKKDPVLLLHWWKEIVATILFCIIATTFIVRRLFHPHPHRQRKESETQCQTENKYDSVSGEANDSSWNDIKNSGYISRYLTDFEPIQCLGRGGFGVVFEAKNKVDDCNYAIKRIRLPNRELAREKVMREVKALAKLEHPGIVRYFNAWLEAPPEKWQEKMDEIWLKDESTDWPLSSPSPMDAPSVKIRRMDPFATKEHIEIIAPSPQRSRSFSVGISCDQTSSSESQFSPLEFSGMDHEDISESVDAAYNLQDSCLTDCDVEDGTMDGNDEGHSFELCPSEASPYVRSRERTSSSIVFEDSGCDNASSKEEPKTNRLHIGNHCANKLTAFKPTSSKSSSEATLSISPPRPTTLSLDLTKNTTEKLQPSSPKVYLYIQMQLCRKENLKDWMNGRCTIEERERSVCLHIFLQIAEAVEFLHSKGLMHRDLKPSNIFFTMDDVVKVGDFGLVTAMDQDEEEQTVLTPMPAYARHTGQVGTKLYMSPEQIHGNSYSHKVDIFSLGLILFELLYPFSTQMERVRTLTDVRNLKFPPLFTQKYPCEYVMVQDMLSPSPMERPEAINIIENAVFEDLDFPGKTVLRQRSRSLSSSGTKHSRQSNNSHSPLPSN
T2 sequence (O96017 whole entry): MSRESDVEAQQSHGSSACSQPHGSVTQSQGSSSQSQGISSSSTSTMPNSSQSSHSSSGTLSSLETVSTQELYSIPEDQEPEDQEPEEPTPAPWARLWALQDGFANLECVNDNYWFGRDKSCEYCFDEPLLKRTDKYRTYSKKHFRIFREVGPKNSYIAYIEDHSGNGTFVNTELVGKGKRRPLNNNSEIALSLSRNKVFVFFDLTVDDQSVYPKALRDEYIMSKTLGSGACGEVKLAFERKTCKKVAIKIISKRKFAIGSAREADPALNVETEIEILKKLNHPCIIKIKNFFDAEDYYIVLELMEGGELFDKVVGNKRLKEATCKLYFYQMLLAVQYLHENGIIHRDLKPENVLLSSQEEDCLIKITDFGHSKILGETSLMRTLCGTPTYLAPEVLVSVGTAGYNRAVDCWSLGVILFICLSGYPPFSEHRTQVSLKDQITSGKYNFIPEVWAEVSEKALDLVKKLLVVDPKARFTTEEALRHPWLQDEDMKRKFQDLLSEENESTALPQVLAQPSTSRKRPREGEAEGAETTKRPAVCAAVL
T1 sequence (Q9Y6M4 whole entry): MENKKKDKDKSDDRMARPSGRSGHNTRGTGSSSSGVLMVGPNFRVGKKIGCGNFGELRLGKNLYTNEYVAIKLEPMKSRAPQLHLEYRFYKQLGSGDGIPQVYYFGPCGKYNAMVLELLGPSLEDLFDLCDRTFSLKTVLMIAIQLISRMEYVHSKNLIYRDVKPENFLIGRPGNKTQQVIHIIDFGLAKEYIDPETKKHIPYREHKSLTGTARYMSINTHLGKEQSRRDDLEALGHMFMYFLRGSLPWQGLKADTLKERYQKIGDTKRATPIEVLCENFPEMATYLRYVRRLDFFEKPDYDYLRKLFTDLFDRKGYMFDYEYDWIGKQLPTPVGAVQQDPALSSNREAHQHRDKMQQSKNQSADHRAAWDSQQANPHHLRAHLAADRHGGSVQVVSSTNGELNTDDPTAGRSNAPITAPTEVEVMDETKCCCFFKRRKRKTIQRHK
Sequence of PLK1 (P53350 whole entry): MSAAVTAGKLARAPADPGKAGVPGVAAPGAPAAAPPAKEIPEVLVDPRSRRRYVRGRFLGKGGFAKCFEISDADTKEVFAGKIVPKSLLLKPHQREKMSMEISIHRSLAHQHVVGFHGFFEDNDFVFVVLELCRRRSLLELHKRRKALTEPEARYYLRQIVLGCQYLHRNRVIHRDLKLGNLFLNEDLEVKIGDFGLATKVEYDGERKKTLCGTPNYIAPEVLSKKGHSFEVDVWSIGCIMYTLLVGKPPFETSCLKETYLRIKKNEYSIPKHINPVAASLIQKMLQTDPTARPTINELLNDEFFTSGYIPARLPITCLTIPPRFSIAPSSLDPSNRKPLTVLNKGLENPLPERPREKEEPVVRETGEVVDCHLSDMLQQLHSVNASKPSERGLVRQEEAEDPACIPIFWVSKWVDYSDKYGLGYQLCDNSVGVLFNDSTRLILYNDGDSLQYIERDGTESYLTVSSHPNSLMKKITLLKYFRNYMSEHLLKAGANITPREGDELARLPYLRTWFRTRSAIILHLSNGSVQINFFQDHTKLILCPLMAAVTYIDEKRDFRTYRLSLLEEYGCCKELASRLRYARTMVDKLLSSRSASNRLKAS
Sequence of ROCK1 (Q13464 whole entry): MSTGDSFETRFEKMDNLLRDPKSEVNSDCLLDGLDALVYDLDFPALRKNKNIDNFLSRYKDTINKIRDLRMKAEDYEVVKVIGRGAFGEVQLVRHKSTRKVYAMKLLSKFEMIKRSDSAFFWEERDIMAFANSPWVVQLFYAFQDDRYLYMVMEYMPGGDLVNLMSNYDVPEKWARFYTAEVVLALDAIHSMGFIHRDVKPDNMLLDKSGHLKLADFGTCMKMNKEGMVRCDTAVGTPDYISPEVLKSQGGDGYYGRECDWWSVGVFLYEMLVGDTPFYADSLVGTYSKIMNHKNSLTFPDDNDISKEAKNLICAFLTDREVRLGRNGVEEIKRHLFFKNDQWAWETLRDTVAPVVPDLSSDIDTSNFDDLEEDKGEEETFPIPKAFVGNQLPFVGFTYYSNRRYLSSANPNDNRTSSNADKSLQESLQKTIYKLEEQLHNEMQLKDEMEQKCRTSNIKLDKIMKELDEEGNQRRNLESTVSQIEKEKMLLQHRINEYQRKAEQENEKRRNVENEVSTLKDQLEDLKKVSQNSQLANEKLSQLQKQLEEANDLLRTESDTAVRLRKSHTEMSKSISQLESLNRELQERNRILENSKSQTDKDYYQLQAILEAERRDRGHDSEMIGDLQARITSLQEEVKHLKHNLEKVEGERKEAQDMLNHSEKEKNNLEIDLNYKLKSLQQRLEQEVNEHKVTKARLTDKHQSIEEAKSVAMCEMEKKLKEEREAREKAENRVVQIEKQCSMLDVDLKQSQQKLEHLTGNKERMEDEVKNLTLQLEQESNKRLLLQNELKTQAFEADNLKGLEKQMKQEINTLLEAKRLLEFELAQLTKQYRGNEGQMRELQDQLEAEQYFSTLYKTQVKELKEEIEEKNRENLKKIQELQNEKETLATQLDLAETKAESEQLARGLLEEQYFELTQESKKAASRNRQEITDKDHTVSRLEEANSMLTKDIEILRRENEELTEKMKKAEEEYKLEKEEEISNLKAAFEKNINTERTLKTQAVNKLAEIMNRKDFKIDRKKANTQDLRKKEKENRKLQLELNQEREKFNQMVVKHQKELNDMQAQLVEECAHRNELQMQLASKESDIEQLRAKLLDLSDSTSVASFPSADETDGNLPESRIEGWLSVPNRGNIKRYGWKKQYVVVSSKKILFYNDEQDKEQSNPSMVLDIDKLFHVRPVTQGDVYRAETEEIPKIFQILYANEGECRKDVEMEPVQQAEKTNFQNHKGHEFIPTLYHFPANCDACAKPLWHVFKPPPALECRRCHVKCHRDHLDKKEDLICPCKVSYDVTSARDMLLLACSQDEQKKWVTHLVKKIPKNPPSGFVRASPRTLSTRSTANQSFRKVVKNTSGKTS
Sequence of LCK (P06239 whole entry): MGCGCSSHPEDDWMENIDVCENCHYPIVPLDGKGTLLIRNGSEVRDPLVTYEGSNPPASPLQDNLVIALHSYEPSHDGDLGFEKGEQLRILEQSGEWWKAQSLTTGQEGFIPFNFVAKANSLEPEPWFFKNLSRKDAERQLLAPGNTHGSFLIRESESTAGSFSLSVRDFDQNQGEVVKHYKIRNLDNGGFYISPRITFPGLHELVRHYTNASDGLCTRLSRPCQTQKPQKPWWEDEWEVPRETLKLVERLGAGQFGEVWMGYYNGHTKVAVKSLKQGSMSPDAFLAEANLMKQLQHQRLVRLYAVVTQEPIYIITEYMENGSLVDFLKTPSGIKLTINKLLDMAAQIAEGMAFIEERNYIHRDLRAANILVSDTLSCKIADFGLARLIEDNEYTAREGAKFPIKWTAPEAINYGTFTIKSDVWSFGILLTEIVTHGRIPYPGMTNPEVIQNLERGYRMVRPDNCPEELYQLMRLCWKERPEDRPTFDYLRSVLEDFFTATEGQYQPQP
Sequence of PIM1 (P11309 whole entry): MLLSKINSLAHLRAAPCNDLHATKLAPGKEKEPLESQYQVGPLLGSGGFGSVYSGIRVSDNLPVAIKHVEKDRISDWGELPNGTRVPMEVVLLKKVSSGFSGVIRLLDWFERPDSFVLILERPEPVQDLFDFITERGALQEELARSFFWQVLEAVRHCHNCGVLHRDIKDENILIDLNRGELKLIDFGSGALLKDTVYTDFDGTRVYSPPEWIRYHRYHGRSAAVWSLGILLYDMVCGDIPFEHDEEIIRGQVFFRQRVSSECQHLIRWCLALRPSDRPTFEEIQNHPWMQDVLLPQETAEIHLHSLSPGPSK

- inhibition at 1 µM ([1]; replicate Data1): 14.1%
- inhibition at 1 µM ([1]; replicate Data2): 20.6%
- inhibition at 1 µM ([2]; replicate Data1): -3.03%
- inhibition at 1 µM ([2]; replicate Data2): 11.3%
- inhibition at 1 µM ([3]; replicate Data1): 15.8%
- inhibition at 1 µM ([3]; replicate Data2): 1.85%
- inhibition at 1 µM ([4]; replicate Data1): 1.73%
- inhibition at 1 µM ([4]; replicate Data2): 19.4%
- inhibition at 1 µM ([5]; replicate Data1): 14.3%
- inhibition at 1 µM ([5]; replicate Data2): 0.49%
- inhibition at 1 µM ([6]; replicate Data1): 2.59%
- inhibition at 1 µM ([6]; replicate Data2): 4.57%
- inhibition at 1 µM ([7]; replicate Data1): 11.8%
- inhibition at 1 µM ([7]; replicate Data2): -2.82%
- inhibition at 1 µM ([8]; replicate Data1): -5.06%
- inhibition at 1 µM ([8]; replicate Data2): -18%
- inhibition at 1 µM ([9]; replicate Data1): 11.8%
- inhibition at 1 µM ([9]; replicate Data2): 9.57%
- inhibition at 1 µM ([10]; replicate Data1): -16.9%
- inhibition at 1 µM ([10]; replicate Data2): -10.8%
- inhibition at 1 µM ([11]; replicate Data1): 19.4%
- inhibition at 1 µM ([11]; replicate Data2): 18.5%
- inhibition at 1 µM ([12]; replicate Data1): 2.07%
- inhibition at 1 µM ([12]; replicate Data2): -4.35%
- inhibition at 1 µM ([13]; replicate Data1): 17%
- inhibition at 1 µM ([13]; replicate Data2): 2.46%
- inhibition at 1 µM ([14]; replicate Data1): 3.88%
- inhibition at 1 µM ([14]; replicate Data2): 7.34%
SMILES: Nc1cn2cc(-c3cnc4c(c3)N(C(=O)OC3CCCCC3)CCO4)ccc2n1 [Zharp1-163]
